# Patent US20260248126A1, “BIOCIDE” (PURGOS APS, priority 2020, published 2026)
# Where “and” joins values, the source holds several entries; their conditions need not be identical. Identical values can stand only once. Entries after “also recorded” stand apart in the source; their conditions may differ.
# Experiments:
# Poria placenta. FPRL 280 = test: EN 113 test against wood destroying basidiomycetes (impregnated Scots pine sapwood); assay type: cell-based; settings: for Corrected mass loss / Mass loss: Mean
# [1] = system: Canidida albicans ISI 1226; test: Minimal inhibitory concentration (MIC), microtiter plate; assay type: cell-based, Candida albicans
# Experimental: (§1) For the tested substance. the stock solution was 10%. Minimum inhibitory concentrations (MICs) are defined as the lowest concentration of an antimicrobial that will inhibit the visible growth of a microorganism after a standardized incubation. In the present study, MIC assay was performed by pipetting robot. The principle is that an indicator microorganism at a defined cell density is cultured with a range of concentrations of the test compound, one concentration pr. well in a row on the microtiter plate. For bacteria and yeasts the minimal inhibitory concentration was detected as no increase of optical density (OD), for moulds microtiter plates were read visually. Each indicator organism is tested in duplicate and the MIC is calculated as the average of the two determinations. The tested concentrations of the antimicrobial substances were 2-fold dilutions from 5%. All indicator organisms (see Table 2.) were pre-cultivated in a suitable growth medium and diluted in the same medium to give a final concentration in the assay of ~1×10^3 cfu/ml. The microtiter plates were incubated under specific incubation conditions (see Table 3). [table]
# [2] = system: Pseudomonas aeruginosa, ATCC 10145; test: PT6 screening: microbial activity in pre-formulated acrylic paint (total ATP, aerobic and anaerobic growth on agar plate); assay type: cell-based
# Experimental: The microbial activity in relation to in-can preservation of paint was tested using three methods: ATP measurement, Aerobic growth on agar plate and Anaerobic growth on agar plate in low-air conditions. In the tests concentrations of 1, 2 and 5% NBDA was tested. […] Furthermore, no significant dependence on concentration was shown in these specific tests. Specific about the ATP measurements: test and method developed by Luminultra. A sample is taken from the test paint at a given time and the total amount of ATP is measured. Total ATP amount are measured at Day 7 and 30. After every ATP measurement, streaking of test material on agar plates has been performed. Growth test in aerobic and anaerobic environment are running in 1 and 14 days, respectively. • Test organism: Pseudomonas aeruginosa, ATCC 10145 The screening has been continuously expanded so that there are individual start-ups of three different trials. See further information in the overview table, table VIII. Table VIII overview. Samples in test. Commercial biocide is Vinkocide CMIK®. Acrylic paint is standard EN 152 (modified without PT6 biocide). P. aeruginosa are inoculated in 200 μl concentration to paint sample size of 140 ml in a sterile “paint can-shape” container. […] “Anaerobic growth day 30” were inoculated on day 20 and measured on day 31.
# bacterial count in paint = test: In-can preservation of paint, long-time study (bacterial count over time, FIGS. 2-5); assay type: cell-based
# Experimental: The results shown that 0.5% NBDA as sole active ingredient for in-can preservation are as successful over times up to at least as year as in-can preservation by 0.5% NBDA together with 0.5% hydrogen peroxide. FIGS. 2-4 show graphs visualizing data on long term effectivity as NBDA as an in-can additive for preservation of paint. […] In […] the development in bacterial count over time for the abovementioned additives are carried out at RT, 32° C. and 60° C. respectively. The starting point is a stained sample i.e., paint with an initial high bacteria count. […] The results shown are for the development in bacterial count over time for paint samples containing 0.5% NBDA alone and 0.5% NBDA+0.5% Hydrogen Peroxide.
# Aspergillus niger ISI 3 [3] = test: Minimal inhibitory concentration (MIC), microtiter plate read visually; assay type: cell-based
# Experimental: as §1
# [4] = system: Lactobacillus brevis ISI 2269; test: Minimum bactericidal concentration (MBC), outgrowth from MIC plates; assay type: cell-based
# Excerpt: (§2) Even when no growth is detectable in the MIC tests, it is possible that the microorganisms have survived the treatment i.e., they are not killed but just prevented from growing. In order to test for survivors, MBC plates were subsequently made from the MIC plates.
# [5] = system: Listeria monocytogenes ISI 22; test: as above; assay type: cell-based
# Excerpt: as §2
# Bacillus cereus ISI 842 = test: as above; assay type: cell-based
# Excerpt: as §2
# [6] = system: Streptococcus termophilus ISI 1563; test: as above; assay type: cell-based
# Excerpt: as §2
# [7] = system: Debaryomyces hansenii ISI 12; test: as above; assay type: cell-based
# Excerpt: as §2
# [8] = system: Leuconostoc mesenteroides ISI 504; test: as above; assay type: cell-based
# Excerpt: as §2
# Aspergillus niger ISI 3 [9] = test: as above; assay type: cell-based
# Excerpt: as §2
# [10] = system: Pseudomonas aeruginosa ISI 1462; test: as above; assay type: cell-based
# Excerpt: as §2
# [11] = system: microbial contamination of PVB dispersion (bacteria count); test: PVB dispersion treated with NBDA: microbial contamination by cATP (LuminUltra); assay type: cell-based; settings: 25° C.
compound,measurement,setting,value
"CCCCN(CCO)CCO [NBDA, N-butyldiethanolamine]","Toxic value, Sol. conc.",Poria placenta. FPRL 280,0.72-1.01 % w/w
same,Corrected mass loss,Poria placenta. FPRL 280; Solution conc. 0.36 % w/w,14.2%
same,Corrected mass loss,Poria placenta. FPRL 280; Solution conc. 0.72 % w/w,8.2%
same,Mass loss,Poria placenta. FPRL 280; Solution conc. 0.72 % w/w,7.8%
same,Corrected mass loss,Poria placenta. FPRL 280; Solution conc. 1.01 % w/w,1.4%
same,Mass loss,Poria placenta. FPRL 280; Solution conc. 1.01 % w/w,1.0%
same,Corrected mass loss,Poria placenta. FPRL 280; Solution conc. 1.43 % w/w,1.5%
same,Mass loss,Poria placenta. FPRL 280; Solution conc. 1.43 % w/w,0.4%
same,"fungicide effect, preventing wood destruction","Poria placenta. FPRL 280; concentrations of 0.36%, 0.51%, 0.72%, 1.01% and 1.43%",effective as a fungicide for preventing wood destruction
same,MIC (%),[1],0.63%
same,"anti-microbial potential in paint (ATP, aerobic and anaerobic growth)","[2]; 1, 2 and 5% NBDA in acrylic paint",all three concentrations reveal anti-microbial potentials
same,"effect against aerobic bacteria, in-can preservation of paints","[2]; concentrations of 0.5%, 1%, 2%, and 5%",effective against aerobic bacteria such Gram-negative bacteria such as Pseudomonas aeruginosa
same,"long term effectivity, bacterial count over time","bacterial count in paint; initial clean sample (low bacterial count), 0.5% NBDA, FIG. 5",as effective as 0.5% NBDA+0.5% Hydrogen peroxide for preventing bacterial growth in paint samples
same,"long term effectivity, bacterial count over time","bacterial count in paint; initial high count, 0.5% and 1% NBDA, RT, 32° C., 60° C., FIGS. 2-4",consistent long-term results for in-can preservation of paint; also recorded: as effective as NBDA+Hydrogen Peroxide for both NBDA concentrations at all three test temperatures long term; also recorded: highly effective as the sole biocide additive for in-can preservation of paints
same,"long term effectivity, bacterial count over time","bacterial count in paint; initial high count, 0.5% and 1% NBDA, RT, 32° C., 60° C., FIGS. 2-4, listed as N-butyldiethanolamine",no bacterial growth even for sustained periods of time; also recorded: sustained effect after more than a year
same,MIC (%),Aspergillus niger ISI 3 [3],0.63%
same,MBC(%),[4],0.31%
same,MBC(%),[5],2.5%
same,MBC(%),Bacillus cereus ISI 842,1.25%
same,MBC(%),[6],1.25%
same,"optical density (OD), MIC Data (second Streptococcus table)",[6]; NBDA 0.02%,0.346 and 0.323
same,"optical density (OD), MIC Data (second Streptococcus table)",[6]; NBDA 0.04%,0.307 and 0.283
same,"optical density (OD), MIC Data (second Streptococcus table)",[6]; NBDA 0.08%,0.311 and 0.304
same,"optical density (OD), MIC Data (second Streptococcus table)",[6]; NBDA 0.16%,0.251 and 0.232
same,"optical density (OD), MIC Data (second Streptococcus table)",[6]; NBDA 0.31%,0.802 and 0.522
same,"optical density (OD), MIC Data (second Streptococcus table)",[6]; NBDA 0.63%,0.277 and 0.427
same,"optical density (OD), MIC Data (second Streptococcus table)",[6]; NBDA 1.25%,0.072
same,"optical density (OD), MIC Data (second Streptococcus table)",[6]; NBDA 2.50%,0.070 and 0.068
same,"optical density (OD), MIC Data (second Streptococcus table)",[6]; NBDA 5.00%,0.062 and 0.058
same,MBC(%),[7],2.5%
same,MBC(%),[8],0.63%
same,"optical density (OD), MRC Data",[8]; NBDA 0.02%,1.449 and 1.467
same,"optical density (OD), MRC Data",[8]; NBDA 0.04%,1.449 and 1.468
same,"optical density (OD), MRC Data",[8]; NBDA 0.08%,1.413 and 1.467
same,"optical density (OD), MRC Data",[8]; NBDA 0.16%,1.337 and 1.425
same,"optical density (OD), MRC Data",[8]; NBDA 0.31%,1.452 and 1.448
same,"optical density (OD), MRC Data",[8]; NBDA 1.25%,0.075
same,"optical density (OD), MRC Data",[8]; NBDA 2.50%,0.076 and 0.077
same,"optical density (OD), MRC Data",[8]; NBDA 5.00%,0.066 and 0.067
same,MBC(%),Aspergillus niger ISI 3 [9],0.63%
same,MBC(%),[10],1.25%
same,pH,"[11]; 0.50% NBDA, after 1 month",9.73
same,pH,"[11]; 0.50% NBDA, after 1 week",9.65
same,pH,"[11]; 0.50% NBDA, after 3 months",9.62
same,pH,"[11]; 0.50% NBDA, after 6 months",9.58
same,pH,"[11]; 0.50% NBDA, after 1 day",9.77
same,pH,"[11]; 1.00% NBDA, after 1 month",9.86
same,pH,"[11]; 1.00% NBDA, after 1 week",9.89
same,pH,"[11]; 1.00% NBDA, after 3 months",9.93
same,pH,"[11]; 1.00% NBDA, after 6 months",9.67
same,pH,"[11]; 1.00% NBDA, after 1 day",10.2
